Literature values as cited in publication PMC9762682, “Tocotrienols: Exciting Biological and Pharmacological Properties of Tocotrienols and Naturally Occurring Compounds, Part II” (Annals of clinical case reports, 2022).
Where two headings read alike, the source gives them in different places. Marks after values point to notes of the source that are not given here.

Columns and labels:
[1] = design: method as in ref 14 = [14]; PMID 27493840; doi:10.4172/2155-9880.1000434; 14. Qureshi AA , Khan DA , Saleem S , Silswal N , Trias AM , Tan B , Pharmacokinetics and bioavailability of Annatto δ-tocotrienol in healthy fed subjects . J Clin Exp Cardiol . 2015; 6 : 11 . 10.417
[2] = tested on: cytokines, adiponectin, TGF-β1, leptin; design: method as in ref 14 = [14]; PMID 27493840; doi:10.4172/2155-9880.1000434; 14. Qureshi AA , Khan DA , Saleem S , Silswal N , Trias AM , Tan B , Pharmacokinetics and bioavailability of Annatto δ-tocotrienol in healthy fed subjects . J Clin Exp Cardiol . 2015; 6 : 11 . 10.417; details: δ-tocotrienol treatment, pharmacokinetic study
[3] = tested on: 20S rabbit muscle proteasome
[4] = tested on: plasma total mRNAs gene expression; design: method as in PMID 30031388
Pancreas cancer cells = tested on: Pancreas cancer cells; design: method as in PMID 29606130
Melanoma cells = tested on: Melanoma cells; design: method as in PMID 29606130
[5] = plasma tocol after single 125 mg δ-tocotrienol dose, healthy fed subjects
[6] = plasma tocol after single 125 mg δ-tocotrienol dose, healthy fed subjects, listed as δ-tocotrienol
[7] = plasma tocol after single 250 mg δ-tocotrienol dose, healthy fed subjects
[8] = plasma tocol after single 250 mg δ-tocotrienol dose, healthy fed subjects, listed as δ-tocotrienol
[9] = plasma tocol after single 500 mg δ-tocotrienol dose, healthy fed subjects
[10] = plasma tocol after single 500 mg δ-tocotrienol dose, healthy fed subjects, listed as δ-tocotrienol
[11] = hepatitis C patients, plasma total mRNAs, pre-dose vs post-dose

Compound: CC(C)=CCC/C(C)=C/CC/C(C)=C/CC[C@]1(C)CCc2cc(O)cc(C)c2O1 [δ-Tocotrienol]
- Time of clearance (Cl-T) ([1]; 125 mg/d Annatto δ-tocotrienol): 0.049 h⁻¹
- Time of clearance (Cl-T) ([1]; 250 mg/d Annatto δ-tocotrienol): 0.045 h⁻¹
- Time of clearance (Cl-T) ([1]; 500 mg/d Annatto δ-tocotrienol): 0.030 h⁻¹
- time of appearance in the plasma ([1]; after δ-tocotrienol administration to well-fed subjects): > 2 h
- Apparent volume of distribution (Vd/f) [1, 5]: 0.179 ± 0.035^a
- Elimination of Half-life time (t1/2) [1, 5]: 1.74 ± 0.36^a h
- Elimination rate constant (ke) [1, 5]: 0.381 ± 0.059^a h-1
- Plasma Peak Concentration (Cmax) [1, 5]: 828.82 ± 24.28^a ng/mL
- Time of clearance (Cl-T) [1, 5]: 0.049 ± 0.004^a I/h
- Time to achieve plasma peak (Tmax) [1, 5]: 3.00 h
- Area Under Curve-0 - 10 (AUC0-10) [1, 6]: 2460 ng·h/mL
- Plasma Peak Concentration (Cmax) [1, 6]: 829 ng/mL
- Apparent volume of distribution (Vd/f) [1, 7]: 0.114 ± 0.011^b
- Elimination of Half-life time (t1/2) [1, 7]: 1.39 ± 0.22^a h
- Elimination rate constant (ke) [1, 7]: 0.401 ± 0.039^b h-1
- Plasma Peak Concentration (Cmax) [1, 7]: 1920.36 ± 57.99^b ng/mL
- Time of clearance (Cl-T) [1, 7]: 0.045 ± 0.002^a I/h
- Time to achieve plasma peak (Tmax) [1, 7]: 3.00 h
- Area Under Curve-0 - 10 (AUC0-10) [1, 8]: 5410 ng·h/mL
- Plasma Peak Concentration (Cmax) [1, 8]: 1920 ng/mL
- Apparent volume of distribution (Vd/f) [1, 9]: 0.613 ± 0.102^c
- Elimination of Half-life time (t1/2) [1, 9]: 2.54 ± 0.05^b h
- Elimination rate constant (ke) [1, 9]: 0.050 ± 0.008^c h-1
- Plasma Peak Concentration (Cmax) [1, 9]: 3278.00 ± 124.13^c ng/mL
- Time of clearance (Cl-T) [1, 9]: 0.030 ± 0.001^b I/h
- Area Under Curve-0 - 10 (AUC0-10) [1, 10]: 15000 ng·h/mL
- Elimination rate constant (ke) [1, 10]: 0.265 h⁻¹
- Time to achieve plasma peak (Tmax) [1, 10]: 6 h
- bioavailability ([1]; when tocotrienols are supplemented in absence of tocopherols): better bioavailability
- adiponectin, TGF-β1, and leptin [2]: up-regulation
- eight cytokines [2]: down-regulation
- chymotrypsin-like activity of 20S rabbit muscle proteasome ([3]; 40 μM): inhibition
- chymotrypsin-like activity of 20S rabbit muscle proteasome ([3]; 80 μM): activation
- side effects in hepatitis C patients ([4]; chronic hepatitis C patients): without any side-effect
- Expr. Fold Change: AKR1D1 [4, 11]: 14.056
- Expr. Fold Change: APOBEC3A [4, 11]: −8.163
- Expr. Fold Change: ATF4 [4, 11]: −9.515
- Expr. Fold Change: ATG3 [4, 11]: −8.376
- Expr. Fold Change: ATP1A1 [4, 11]: −8.014
- Expr. Fold Change: CERS3 [4, 11]: 19.082
- Expr. Fold Change: COX14 [4, 11]: −9.447
- Expr. Fold Change: CREB1 [4, 11]: −8.452
- Expr. Fold Change: CXCR2 [4, 11]: −8.208
- Expr. Fold Change: CYB5R4 [4, 11]: −8.367
- Expr. Fold Change: CYP2R1 [4, 11]: −8.682
- Expr. Fold Change: FRS2 [4, 11]: −9.962
- Expr. Fold Change: GPR65 [4, 11]: −9.054
- Expr. Fold Change: GPS2 [4, 11]: −9.56
- Expr. Fold Change: GTPBP8 [4, 11]: −10.19
- Expr. Fold Change: GYS1 [4, 11]: −9.027
- Expr. Fold Change: HBG1 [4, 11]: 17.945
- Expr. Fold Change: HBG2 [4, 11]: 11.413
- Expr. Fold Change: HHIPL2 [4, 11]: 28.710
- Expr. Fold Change: HIST1H2AD [4, 11]: 1804955.068
- Expr. Fold Change: HSP90AB1 [4, 11]: −8.049
- Expr. Fold Change: HSPA14 [4, 11]: −10.978
- Expr. Fold Change: ID2 [4, 11]: −14.133
- Expr. Fold Change: IFNGR2 [4, 11]: −13.844
- Expr. Fold Change: IGF2R [4, 11]: −8.68
- Expr. Fold Change: IGSF6 [4, 11]: −8.712
- Expr. Fold Change: IL2RG [4, 11]: −16.787
- Expr. Fold Change: IL16 [4, 11]: −8.239
- Expr. Fold Change: IL27RA [4, 11]: −12.004
- Expr. Fold Change: ILF2 [4, 11]: −9.105
- Expr. Fold Change: IRF2 [4, 11]: −22.655
- Expr. Fold Change: KLRC4-KLRK1/KLRK1 [4, 11]: −1565687.642
- Expr. Fold Change: MKX [4, 11]: 9.573
- Expr. Fold Change: MT-TQ [4, 11]: 14.252
- Expr. Fold Change: NDUFA11 [4, 11]: −8.686
- Expr. Fold Change: NDUFB1 [4, 11]: −8.566
- Expr. Fold Change: NDUFB9 [4, 11]: −8.354
- Expr. Fold Change: NFIL3 [4, 11]: −9.568
- Expr. Fold Change: OSBPL11 [4, 11]: −9.201
- Expr. Fold Change: P4HA3 [4, 11]: 8.686
- Expr. Fold Change: PDE3B [4, 11]: −8.568
- Expr. Fold Change: PECAM1 [4, 11]: −9.552
- Expr. Fold Change: PIAS1 [4, 11]: −9.326
- Expr. Fold Change: PIBF1 [4, 11]: −9.876
- Expr. Fold Change: PRPF18 [4, 11]: −8.777
- Expr. Fold Change: PSMA5 [4, 11]: −9.31
- Expr. Fold Change: PSMB4 [4, 11]: −10.119
- Expr. Fold Change: PSMB8 [4, 11]: −9.709
- Expr. Fold Change: PSMC3 [4, 11]: −8.346
- Expr. Fold Change: PTGS2 [4, 11]: −25.841
- Expr. Fold Change: RAP2C [4, 11]: −9.792
- Expr. Fold Change: RPP38 [4, 11]: 24.946
- Expr. Fold Change: RPS26 [4, 11]: −9.456
- Expr. Fold Change: SCP2 [4, 11]: −13.672
- Expr. Fold Change: SERP1 [4, 11]: −8.872
- Expr. Fold Change: SFPQ [4, 11]: −9.469
- Expr. Fold Change: TLR8 [4, 11]: −11.975
- Expr. Fold Change: TNFAIP8 [4, 11]: −10.974
- Expr. Fold Change: TNFRSF1B [4, 11]: −8.746
- Expr. Fold Change: TRAF7 [4, 11]: −9.341
- Expr. Fold Change: TSPAN15 [4, 11]: 11.523
- Expr. Fold Change: TUSC2 [4, 11]: −15.922
- Expr. Fold Change: UBA52 [4, 11]: −10.176
- Expr. Fold Change: UBE2J1 [4, 11]: −8.874
- Expr. Fold Change: UBE4A [4, 11]: −10.189
- Expr. Fold Change: UBP1 [4, 11]: −9.718
- Expr. Fold Change: USP15 [4, 11]: −10.16
- Expr. Fold Change: USP19 [4, 11]: −10.713
- Expr. Fold Change: USP25 [4, 11]: −9.911
- Expr. Fold Change: VEGFA [4, 11]: −8.933
- Expr. Fold Change: mir-140 [4, 11]: −5668.259
- Expr. Fold Change: mir-877 [4, 11]: −4497.07
- Expr. Fold Change: mir-1250 [4, 11]: −4755.79
- expression of pro-inflammatory cytokines (TNF-α, VCAM1, proteasome subunits) ([4]; plasma total mRNAs after δ-tocotrienol feeding to hepatitis C patients): significant inhibition
- expression of ICAM1 and IFN-γ ([4]; plasma total mRNAs after δ-tocotrienol feeding to hepatitis C patients, post-treatment): induction
- IC50 (Pancreas cancer cells): 10 µM
- percentage of control at IC50 dose (Pancreas cancer cells): 36%
- effective dose (Pancreas cancer cells; 48 h): 20 µM
- percentage of control at effective dose (Pancreas cancer cells; 48 h): 5%
- IC50 (Melanoma cells): 10 µM
- effective dose (Melanoma cells): 20 µM
- percentage of control at IC50 dose (Melanoma cells): 50%
- percentage of control at effective dose (Melanoma cells): 37%
